Results from ChEMBL document CHEMBL1152303, “Synthesis and biological evaluation of a series of liver-selective phosphonic acid thyroid hormone receptor agonists and their prodrugs” (J Med Chem, 2008).
Blank lines part the entries; values can stand above or below the compound they belong to.

Experiments:
Rattus norvegicus [1] = test: Reduction in total plasma cholesterol level in cholesterol-fed Sprague-Dawley rat at 0.2 mg/kg, ip after 24 hrs; type: functional; design: scale not given: the % may be the effect or the level left; conditions: route intraperitoneal
Rattus norvegicus [2] = test: Reduction in total plasma cholesterol level in cholesterol-fed Sprague-Dawley rat at 0.5 mg/kg, po after 24 hrs; type: functional; design: scale not given: the % may be the effect or the level left
Rattus norvegicus [3] = test: Reduction in total plasma cholesterol level in cholesterol-fed orally dosed Sprague-Dawley rat after 24 hrs; type: functional; conditions: po
[4] = Metabolic stability in human liver S9 fraction assessed as activation rate at 100 uM after 1 hr; type: ADME, subcellular; conditions: s9, 1 h
[5] = Metabolic stability in human S9 liver fraction assessed as monoacid levels at 100 uM after 1 hr; type: ADME, subcellular; conditions: s9, 1 h
[6] = Metabolic stability in human S9 liver fraction assessed as prodrug remaining at 100 uM after 1 hr; type: ADME, subcellular; conditions: s9, 1 h
Rattus norvegicus [7] = test: Reduction in total plasma cholesterol level in cholesterol-fed orally dosed Sprague-Dawley rat after 24 hrs relative to control; type: functional; design: scale not given: the % may be the effect or the level left
[8] = molecular target: T1, Thyroid hormone receptor beta (Homo sapiens, UniProt P10828)
T1 sequence (P10828 whole entry): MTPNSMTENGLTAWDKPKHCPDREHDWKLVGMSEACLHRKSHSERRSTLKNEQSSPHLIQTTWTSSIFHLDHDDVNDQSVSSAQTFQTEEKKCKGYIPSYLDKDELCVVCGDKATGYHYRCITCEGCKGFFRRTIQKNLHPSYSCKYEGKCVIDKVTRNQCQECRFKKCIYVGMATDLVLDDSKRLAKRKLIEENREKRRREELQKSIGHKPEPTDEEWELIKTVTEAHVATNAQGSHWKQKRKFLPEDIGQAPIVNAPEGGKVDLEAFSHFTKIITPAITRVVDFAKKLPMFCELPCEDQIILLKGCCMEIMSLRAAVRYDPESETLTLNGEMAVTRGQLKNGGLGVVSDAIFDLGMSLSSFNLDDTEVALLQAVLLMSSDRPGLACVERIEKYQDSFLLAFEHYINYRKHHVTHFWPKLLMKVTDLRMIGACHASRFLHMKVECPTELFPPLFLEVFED
Description: Displacement of [125I]3,5,3'-triiodo-L-thyronine His-tagged human recombinant TRbeta1 by scintillation proximity assay

[9] = molecular target: T2, Thyroid hormone receptor alpha (Homo sapiens, UniProt P10827)
T2 sequence (P10827 whole entry): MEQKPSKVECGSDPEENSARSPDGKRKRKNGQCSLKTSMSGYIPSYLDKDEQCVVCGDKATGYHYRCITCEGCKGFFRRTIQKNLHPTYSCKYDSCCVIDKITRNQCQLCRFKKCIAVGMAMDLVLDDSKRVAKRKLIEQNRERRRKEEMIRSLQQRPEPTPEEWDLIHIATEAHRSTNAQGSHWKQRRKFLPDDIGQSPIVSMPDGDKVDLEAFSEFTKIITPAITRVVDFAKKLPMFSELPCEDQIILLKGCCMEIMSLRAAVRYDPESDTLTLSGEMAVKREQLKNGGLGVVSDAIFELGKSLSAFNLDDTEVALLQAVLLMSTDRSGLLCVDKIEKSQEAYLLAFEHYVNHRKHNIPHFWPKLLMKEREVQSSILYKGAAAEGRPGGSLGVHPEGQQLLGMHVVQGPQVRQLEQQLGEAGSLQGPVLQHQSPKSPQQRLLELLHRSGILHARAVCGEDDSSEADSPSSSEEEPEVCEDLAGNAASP
Description: Displacement of [125I]3,5,3'-triiodo-L-thyronine from His-tagged human recombinant TRalpha1 by scintillation proximity assay

Rattus norvegicus [10] = test: Agonist activity at thyroid hormone receptor in Sprague-Dawley rat assessed as liver mGPDH activity at 1 mg/kg administered through osmotic pump infusion per ug protein; type: functional
Rattus norvegicus [11] = test: Agonist activity at thyroid hormone receptor in Sprague-Dawley rat assessed as heart mGPDH activity at 1 mg/kg administered through osmotic pump infusion per ug protein; type: functional
[12] = AUClast in Sprague-Dawley rat at 3 mg/kg, iv; type: ADME, organism-based; design: time 0 - last, dose 3 mg/kg, route intravenous; conditions: plasma
[13] = AUClast in Sprague-Dawley rat at 3 mg/kg, po; type: ADME, organism-based; design: time 0 - last, dose 3 mg/kg, route oral; conditions: plasma
Rattus norvegicus [14] = test: Cmax in Sprague-Dawley rat at 3 mg/kg, iv; type: ADME, organism-based; design: dose 3 mg/kg, route intravenous; conditions: in vivo
Rattus norvegicus [15] = test: Cmax in Sprague-Dawley rat at 3 mg/kg, po; type: ADME, organism-based; design: dose 3 mg/kg, route oral; conditions: in vivo
[16] = Tmax in Sprague-Dawley rat at 3 mg/kg, iv; type: ADME, organism-based; design: dose 3 mg/kg, route intravenous; conditions: in vivo
Rattus norvegicus [17] = test: Tmax in Sprague-Dawley rat at 3 mg/kg, po; type: ADME, organism-based; design: dose 3 mg/kg, route oral; conditions: in vivo
Rattus norvegicus [18] = test: Half life in Sprague-Dawley rat at 3 mg/kg, iv; type: ADME, organism-based; design: dose 3 mg/kg, route intravenous; conditions: in vivo
Rattus norvegicus [19] = test: Half life in Sprague-Dawley rat at 3 mg/kg, po; type: ADME, organism-based; design: dose 3 mg/kg, route oral; conditions: in vivo
[20] = Mean residence time in Sprague-Dawley rat at 3 mg/kg, iv; type: ADME, organism-based; design: dose 3 mg/kg, route intravenous; conditions: in vivo
[21] = Mean residence time in Sprague-Dawley rat at 3 mg/kg, po; type: ADME, organism-based; design: dose 3 mg/kg, route oral; conditions: in vivo
Rattus norvegicus [22] = test: Mean absorption time in Sprague-Dawley rat at 3 mg/kg, po; type: ADME, organism-based; design: dose 3 mg/kg, route oral; conditions: in vivo
[23] = Oral bioavailability in Sprague-Dawley rat at 3 mg/kg; type: ADME, organism-based; conditions: in vivo
Rattus norvegicus [24] = test: AUClast in Sprague-Dawley rat assessed as 3,5-Dimethyl-4-(4'-hydroxy-3'-isopropylbenzyl)phenoxy]methylphosphonic acid level at 3 mg/kg, iv; type: ADME, organism-based, Plasma; design: time 0 - last, dose 3 mg/kg, route intravenous; conditions: in vivo
Rattus norvegicus [25] = test: AUClast in Sprague-Dawley rat assessed as 3,5-Dimethyl-4-(4'-hydroxy-3'-isopropylbenzyl)phenoxy]methylphosphonic acid level at 3 mg/kg, po; type: ADME, organism-based, Plasma; design: time 0 - last, dose 3 mg/kg, route oral; conditions: in vivo
Rattus norvegicus [26] = test: Cmax in Sprague-Dawley rat assessed as 3,5-Dimethyl-4-(4'-hydroxy-3'-isopropylbenzyl)phenoxy]methylphosphonic acid level at 3 mg/kg, iv; type: ADME, organism-based; design: dose 3 mg/kg, route intravenous; conditions: in vivo
Rattus norvegicus [27] = test: Cmax in Sprague-Dawley rat assessed as 3,5-Dimethyl-4-(4'-hydroxy-3'-isopropylbenzyl)phenoxy]methylphosphonic acid level at 3 mg/kg, po; type: ADME, organism-based; design: dose 3 mg/kg, route oral; conditions: in vivo
Rattus norvegicus [28] = test: Tmax in Sprague-Dawley rat assessed as 3,5-Dimethyl-4-(4'-hydroxy-3'-isopropylbenzyl)phenoxy]methylphosphonic acid level at 3 mg/kg, iv; type: ADME, organism-based; design: dose 3 mg/kg, route intravenous; conditions: in vivo
Rattus norvegicus [29] = test: Tmax in Sprague-Dawley rat assessed as 3,5-Dimethyl-4-(4'-hydroxy-3'-isopropylbenzyl)phenoxy]methylphosphonic acid level at 3 mg/kg, po; type: ADME, organism-based; design: dose 3 mg/kg, route oral; conditions: in vivo
Rattus norvegicus [30] = test: Half life in Sprague-Dawley rat assessed as 3,5-Dimethyl-4-(4'-hydroxy-3'-isopropylbenzyl)phenoxy]methylphosphonic acid level at 3 mg/kg, iv; type: ADME, organism-based; design: dose 3 mg/kg, route intravenous; conditions: in vivo
Rattus norvegicus [31] = test: Half life in Sprague-Dawley rat assessed as 3,5-Dimethyl-4-(4'-hydroxy-3'-isopropylbenzyl)phenoxy]methylphosphonic acid level at 3 mg/kg, po; type: ADME, organism-based; design: dose 3 mg/kg, route oral; conditions: in vivo
Rattus norvegicus [32] = test: Mean residence time in Sprague-Dawley rat assessed as 3,5-Dimethyl-4-(4'-hydroxy-3'-isopropylbenzyl)phenoxy]methylphosphonic acid level at 3 mg/kg, iv; type: ADME, organism-based; design: dose 3 mg/kg, route intravenous; conditions: in vivo
Rattus norvegicus [33] = test: Mean residence time in Sprague-Dawley rat assessed as 3,5-Dimethyl-4-(4'-hydroxy-3'-isopropylbenzyl)phenoxy]methylphosphonic acid level at 3 mg/kg, po; type: ADME, organism-based; design: dose 3 mg/kg, route oral; conditions: in vivo
Rattus norvegicus [34] = test: Mean absorption time in Sprague-Dawley rat assessed as 3,5-Dimethyl-4-(4'-hydroxy-3'-isopropylbenzyl)phenoxy]methylphosphonic acid level at 3 mg/kg, po; type: ADME, organism-based; design: dose 3 mg/kg, route oral; conditions: in vivo
Rattus norvegicus [35] = test: Oral bioavailability in Sprague-Dawley rat assessed as 3,5-Dimethyl-4-(4'-hydroxy-3'-isopropylbenzyl)phenoxy]methylphosphonic acid level at 3 mg/kg; type: ADME, organism-based; conditions: in vivo

SMILES: CC(C)c1cc(Oc2c(Br)cc(NCP(=O)(O)O)cc2Br)ccc1O
- Activity (Rattus norvegicus [1]): 47.7%

SMILES: CC(C)c1cc(Oc2c(I)cc(CP(=O)(O)O)cc2I)ccc1O
- Activity (Rattus norvegicus [1]): 39.4%

- Stability [4]: 134 pmol/min/mg
- Stability [5]: 79%
- Stability [6]: 11%
SMILES: Cc1cc(OCP(=O)(OCOC(=O)C(C)(C)C)OCOC(=O)C(C)(C)C)cc(C)c1Cc1ccc(O)c(C(C)C)c1
- Activity (Rattus norvegicus [2]): 33%
- ED50 (Rattus norvegicus [3]): 0.7 mg/kg
- Activity (Rattus norvegicus [7]): 46%

SMILES: Cc1cc(OC[P@@]2(=O)OCC[C@@H](c3ccc(Cl)cc3)O2)cc(C)c1Cc1ccc(O)c(C(C)C)c1
- Activity (Rattus norvegicus [2]): 28%

- Ki [8]: 30.5 nM
SMILES: CC(C)c1cc(Oc2c(Cl)cc(NCP(=O)(O)O)cc2Cl)ccc1O

- Ki [9]: 235 nM
- Ki [8]: 15.5 nM
SMILES: CC(C)c1cc(Oc2c(Br)cc(CP(=O)(O)O)cc2Br)ccc1O

- Ki [9]: 3300 nM
SMILES: COc1cc(OCP(=O)(O)O)cc(OC)c1Cc1ccc(O)c(C(C)C)c1

SMILES: Cc1cc(OC[P@@]2(=O)OCC[C@@H](c3cccnc3)O2)cc(C)c1Cc1ccc(O)c(C(C)C)c1 (relative stereo)
- Activity (Rattus norvegicus [2]): 39%

SMILES: Cc1cc(OC[P@@]2(=O)OCC[C@@H](c3cccc(F)c3)O2)cc(C)c1Cc1ccc(O)c(C(C)C)c1 (relative stereo)
- Activity (Rattus norvegicus [2]): 46%

SMILES: Cc1cc(OC[P@@]2(=O)OCC[C@@H](c3cc(Cl)cc(Cl)c3)O2)cc(C)c1Cc1ccc(O)c(C(C)C)c1 (relative stereo)
- Activity (Rattus norvegicus [2]): 29%

SMILES: Cc1cc(OC[P@@]2(=O)OCC[C@@H](c3ccncc3)O2)cc(C)c1Cc1ccc(O)c(C(C)C)c1 (relative stereo)
- Activity (Rattus norvegicus [2]): 29%

SMILES: Cc1cc(OC[P@@]2(=O)OCC[C@@H](c3cccc(Br)c3)O2)cc(C)c1Cc1ccc(O)c(C(C)C)c1 (relative stereo)
- Activity (Rattus norvegicus [2]): 0%

SMILES: N[C@@H](Cc1cc(I)c(Oc2ccc(O)c(I)c2)c(I)c1)C(=O)O [LIOTHYRONINE]
- Activity (Rattus norvegicus [10]): 7.52 U/min
- Activity (Rattus norvegicus [11]): 4.18 U/min

- Ki [8]: 2.95 nM
SMILES: Cc1cc(OCP(=O)(O)O)cc(C)c1Cc1ccc(O)c(C(C)C)c1 [MB07344]
- Activity (Rattus norvegicus [10]): 7.37 U/min
- Activity (Rattus norvegicus [11]): 1.66 U/min
- Activity (Rattus norvegicus [1]): 37.2%

- AUC(0-t) [12]: 260 ng·h/mL
- AUC(0-t) [13]: 26 ng·h/mL
- Cmax (Rattus norvegicus [14]): 600 ng/mL
- Cmax (Rattus norvegicus [15]): 12 ng/mL
- Tmax [16]: 0 h
- Tmax (Rattus norvegicus [17]): 2.1 h
- t1/2 (Rattus norvegicus [18]): 1.23 h
- t1/2 (Rattus norvegicus [19]): 0.95 h
- MRT [20]: 1.2 h
- MRT [21]: 2.49 h
- MAT (Rattus norvegicus [22]): 1.29 h
- bioavailability [23]: 9.9%
- AUClast (Rattus norvegicus [24]): 340 ng·h/mL
- AUClast (Rattus norvegicus [25]): 135 ng·h/mL
- Cmax (Rattus norvegicus [26]): 92 ng/mL
- Cmax (Rattus norvegicus [27]): 18 ng/mL
- Tmax (Rattus norvegicus [28]): 0.6 h
- Tmax (Rattus norvegicus [29]): 3.6 h
- t1/2 (Rattus norvegicus [30]): 8.82 h
- t1/2 (Rattus norvegicus [31]): 9.25 h
- MRT (Rattus norvegicus [32]): 4.49 h
- MRT (Rattus norvegicus [33]): 7.91 h
- MAT (Rattus norvegicus [34]): 3.4 h
- F (Rattus norvegicus [35]): 39.2%
SMILES: Cc1cc(OCP2(=O)OCC[C@@H](c3cccc(Cl)c3)O2)cc(C)c1Cc1ccc(O)c(C(C)C)c1 (stereo not given in full) [MB07811]
- Activity (Rattus norvegicus [2]): 36%
- ED50 (Rattus norvegicus [3]): 0.48 mg/kg
- Activity (Rattus norvegicus [7]): 55%

SMILES: Cc1cc(OCC(=O)O)cc(C)c1Cc1ccc(O)c(C(C)C)c1 [SOBETIROME]
- Activity (Rattus norvegicus [10]): 7.88 U/min
- Activity (Rattus norvegicus [11]): 4.08 U/min

SMILES: O=C(O)Cc1cc(I)c(Oc2ccc(O)c(I)c2)c(I)c1 [TIRATRICOL]
- Activity (Rattus norvegicus [10]): 7.1 U/min
- Activity (Rattus norvegicus [11]): 3.68 U/min
